Laboratory results taken from patent US10308986B2, “Cancer diagnosis, treatment selection and treatment” (CHILDREN'S MEDICAL CENTER CORPORATION, priority 2013, dated 2019).
Where two headings read alike, the source gives them in different places.

Assays:
[1] = tested on: panel of breast cancer cell lines; assay: Colony formation assay, IC50, panel of breast cancer cell lines; type: cell-based; conditions: for association of pattern of sensitivity across cell line panel with relative expression of BRCA1/BLM and BLM/Actin: panel of breast cancer cell lines
Description: Three cell lines (BT549, HCC1143, and HCC38) are normal genotype for BRCA1 and have high BLM/Actin and low ratio of BRCA1/BLM. Two cell lines (MDA231 and MDA453) are also normal genotype for BRCA1 but have relatively higher expression of BRCA1/BLM and lower BLM/actin. HCC1937 and MDA436 have homozygous mutation in BRCA1 and undetectable BRCA1/BLM, and higher expression of BLM/Actin.
A panel of cell lines was evaluated for sensitivity to various treatments as indicated by colony formation assay and calculation of IC50 values.

[2] = tested on: BT549 breast cancer cells; assay: Colony formation assay, IC50, BT549 cells treated with siRNAs to BLM or FANCI; type: cell-based; conditions: versus scramble control
Description: We further treated BT549 breast cancer cells, with inherent high levels of BLM and FANCI were treated with gene-specific siRNAs to BLM or FANCI or with a scramble control.

[3] = tested on: triple negative breast cancer; conditions: 28 TNBC patients, neoadjuvant cisplatin as single agent (Silver et al., JCO 2010); cited from earlier work
[4] = tested on: MDA231 breast cancer cells; assay: Colony formation assay, IC50 for cisplatin, MDA231 cells with BLM overexpression; type: cell-based
Description: These cells were used in experiments to assess the effect of increasing the expression of BLM. A lentivirus expression vector for HA-tagged BLM cDNA or a control vector was transfected into MDA231 cells. BLM expression was assessed by Western blot analysis for endogenous BLM or for the HA-tag in cells treated with control vector, BLM cDNA, BLM cDNA and a small molecule inhibitor of BLM helicase (BLMi), or BLM cDNA and BLM siRNA.
IC50 for cisplatin was determined by colony formation assay in MDA231 breast cancer cells treated with control vector, BLM cDNA vector, BLM cDNA plus the BLM small molecule inhibitor, and BLM cDNA plus BLM siRNA. […] Consistent with the other findings, this effect was reversed by treatment with the BLM helicase inhibitor and by siRNA knockdown of BLM.

H2AX and 53BP1 foci = assay: Immunofluorescence assay for markers of DNA damage (H2Ax-p and 53BP1-p) in MDA231 cells; type: cell-based; conditions: cisplatin after 4 hours, compared with no cisplatin treatment
Description: We also performed an immunofluorescence assay for markers of DNA damage (H2Ax-p and 53BP1-p) in MDA231 cells treated with control vector, BLM cDNA, BLM cDNA+BLM inhibitor, or BLM cDNA+BLM siRNA. Overexpression of BLM results in increased H2AX and 53BP1 foci in the absence of any cisplatin treatment indicating spontaneous DNA damage. This effect is even greater in cells treated with cisplatin after 4 hours. The quantitation of foci is shown in the lower bar graphs. The addition of a small molecule BLM helicase inhibitor (Bi) or siRNA to BLM (si) blocks the effect of BLM overexpression on DNA damage foci.

[5] = tested on: triple negative breast cancer; conditions: TNBC patients, neoadjuvant cisplatin in combination with bevacizumab; 44 patients completed therapy (Ryan et al., JCO 2009); cited from earlier work
[6] = two BRCA1 mutated cell lines (HCC1937, MDA436) and three cell lines with low BRCA1/BLM and high BLM/actin (BT549, HCC1143, HCC38)
[7] = two cell lines with low BLM and high BRCA1/BLM (MDA231, MDA453)

Compound	association of pattern of sensitivity across cell line panel with relative expression of BRCA1/BLM and BLM/Actin [1]	sensitivity by colony formation assay (IC50) [1, 6]	sensitivity by colony formation assay (IC50) [1, 7]	effect of siRNA knockdown of either BLM or FANCI on IC50 [2]	patients who achieved at least 90% reduction in tumor size [3]	sensitivity of MDA231 cells ([4]; MDA231 cells with low levels of BLM)	effect of overexpression of BLM on IC50 for cisplatin ([4]; MDA231 cells, BLM cDNA vector versus control vector)	H2AX and 53BP1 foci in BLM overexpressing cells (H2AX and 53BP1 foci)	patients who achieved at least 90% reduction in tumor size [5]
O=C(c1cc(Cc2n[nH]c(=O)c3ccccc23)ccc1F)N1CCN(C(=O)C2CC2)CC1 [Olaparib]	associated	greater sensitivity	relatively resistant						
CC(=O)O[C@H]1C(=O)[C@@]2(C)[C@H]([C@H](OC(=O)c3ccccc3)[C@]3(O)C[C@H](OC(=O)[C@H](O)[C@@H](NC(=O)c4ccccc4)c4ccccc4)C(C)=C1C3(C)C)[C@]1(OC(C)=O)CO[C@@H]1C[C@@H]2O [Paclitaxel]	no apparent association			no significant effect					
N.N.[Cl][Pt][Cl] [cisplatin, cis-diamminedichloroplatinum]	associated	greater sensitivity	relatively resistant	increased IC50 (greater resistance)	36%	relative resistance	decrease in the IC50 (greater sensitivity)	even greater	39%
